Measurements published in patent US11440939B2, “Anticancer peptides” (IDP DISCOVERY PHARMA, S.L., priority 2017, dated 2022).
Numbered stars: 1 amine (or outer) side, 2 acyl side, 3 side chain; on linkers, the order of the positions; unused ones are H or OH. Bridge positions count the residues as written; N and C are the ends. Square brackets hold non-standard residues; d marks the D form. Peptide text beside a SMILES is read from it. ξ: configuration not given here. ξαMeNle(6-ylidene) = CC(CCCC=[*:3])(N[*:1])C(=O)[*:2]; X1 = CC(CCCCCCC=[*:3])(N[*:1])C(=O)[*:2]

Legend:
Format in all cases: cell-based
[1] = tested on: NCI-H82; settings: 72 h
Description: NCI-H82, epithelial (small cell lung cancer, SCLC), ATCC-CRL-5811;
(§1) Cell line MCF-7 was cultured in incubator under CO2 (6%) at 37° C. in DMEM high glucose (Dulbecco's Modified Eagle Solution, Gibco-BRL 31966-21) medium with 10% fetal bovine serum inactivated (FBS) (Gibco-BRL 10106-169). Cell lines HL-60, NCI-H524, NCI-H526, NCI-H69, NCI-H82, NCI-H187 and H5B were cultured in an incubator at 37° C. in RPMI-1640 (Sigma R8758) medium with 10% of fetal bovine serum inactivated (FBS) and 2 mM glutamine (Sigma G7513). Cell line NCI-H510A was cultured in incubator in F12K medium with 10% of fetal bovine serum inactivated (FBS). Cell line GBM-18 and GBM-27 were cultured in incubator under CO2 (6%) at 37° C. in complete medium (Neurobasal+B27+Glutamax+Growth factors).
(§2) During the amplification step and the assays, adherent cells were rinsed with DPBS (Dulbecco's Phosphate Buffered Saline, Sigma D1283) three times and afterward treated for 5 minutes with trypsin ([…]) (Gibco-BRL, 15400054) in solution of DPBS at 37° C., and, once detached, transferred in the culturing medium. No-adherent cells were centrifuged and transferred in the culturing medium. Cells were counted in a Neubauer chamber after labelling with Tripan-Blue.
(§3) MCF-7, NCI-H187, NCI-H69, NCI-H526 and H5B cells were seeded at a density of 5000 cells/well; NCI-H524 and NCI-H82 were seeded at a density of 2500 cells/well; HL-60 and NCI-H510A at 10000 cells/well in 100 μl of medium in 96 well plates. After 24 h, the compounds to be tested were added to calculate the dose/response curve at the starting concentration of 100 μM with serial dilutions (1:1). Controls were the untreated cells. Each experiment was performed in triplicate.
(§4) Cells were incubated during 72 h in incubator under CO2 atmosphere at 37° C. Cell viability was measured by means of MTT (3-(4,5-dimethylthiazol-2-yl)-2,5-diphenyltetrazolium bromide) assay, Alamar Blue® (Biosource DAL1100) and Hexosaminidase activity test, consecutively, following manufacturer instructions.
(§5) MTT: 1. Stock solution of MTT (475989 Calbiochem) was 5 mg/ml in PBS 1×. As negative control (experiment noise) 3 wells were treated with 20 μl/well of a solution of SDS 10% in H2O. The same control was used for Alamar Blue/Hexosaminidase. 10 μl/well of MTT solution were added and the plate was incubated for 3-4 hr. The medium was discarded and 100 μl of extracting buffer (PBS 1×, 15% SDS, 50% […] N,N-Dimethylformamide, pH 4,7) were added to each well. Plates were incubated for 16 h at room temperature under orbital shaking. Absorbance at 570 nm was finally measured.
(§6) Alamar Blue: 10 μl Alamar Blue solution was added to each well and the plates were incubated for […] in the incubator. Fluorescence ratio at 535/590 (excitation/emission) was measured in Cytofluor (Millipore) fluorimeter. Blank control was determined by lysis of untreated cells with con 2% of Triton X100, right before adding Alamar Blue solution.
(§7) Hexosaminidase activity test: after Alamar Blue lecture, medium was discarded and plates were rinsed once with PBS. 60 μl hexosaminidase substrate (p-nitrophenol-N-acetyl-beta-D-glucosamide 7.5 mM [Sigma N-9376], sodium citrate 0.1 M, pH 5.0, 0.25% Triton X-100) was added to each well and the plates were incubated at 37° C. for 2-5 h, according to the cell type (hexosaminidase activity changes according to the cell type). […] Blank control was the same as described before.
(§8) Data analysis was performed calculating the percentage of cell viability normalized vs. the values of negative control, which was considered equal to 100%. The dose/response curve was fitted through the sigmoidal equation dose-response (variable slope) and the EC50 values were calculated as follow: Y=Bottom+(Top−Bottom)/(1+10^{[(Log EC50−X)*HillSlope]},

[2] = tested on: NCI-H187; settings: 72 h
Description: NCI-H187, epithelial (small cell lung cancer, SCLC), ATCC-CRL-5804;
as §1, §2, §3, §4, §5, §6, §7, §8

[3] = tested on: NCI-H510A; settings: 72 h
Description: NCI-510A, epithelial (small cell lung cancer, SCLC), ATCC-HBT-124; and Hepatocytes (normal liver), from a donor was provided by Foundation DTI-Donation & Transplantation Institute from surgical wastes and from organs not suitable for transplantation
as §1, §2, §3, §4, §5, §6, §7, §8

[4] = tested on: cancer cell lines; assay: Inhibition of cancer cell proliferation, general statements
Description: as §3, §4, §8

## CC(C)C[C@H](NC(=O)[C@H](CCCCN)NC(=O)[C@@H](NC(=O)[C@@H](N)CCCNC(=N)N)C(C)C)C(=O)N[C@H](C(=O)N[C@@H](CC(N)=O)C(=O)N[C@@H](CC(C)C)C(=O)NC1(C)CCCCCCC=CCCCC(C)(C(=O)N[C@H](C(=O)N2CCC[C@H]2C(N)=O)C(C)C)NC(=O)[C@H](Cc2ccccc2)NC(=O)[C@H](CCCNC(=N)N)NC(=O)[C@H](CC(C)C)NC(=O)[C@H]([C@@H](C)O)NC(=O)[C@H](C)NC(=O)[C@H](Cc2ccccc2)NC1=O)C(C)C (some centres unmarked) [IDP-H14-F12] (H-RVKLVNL[X1]FATLRF[ξαMeNle(6-ylidene)]VP-NH2; staple 8-15; N-terminus and C-terminus assumed)
[1]
  EC50: ~7.5 µM
[2]
  EC50: ~7.5 µM
[3]
  EC50: ~7.5 µM
[4]
  inhibition of cancer cell proliferation (in words): active

## CC(C)C[C@H](NC(=O)[C@H](CCCCN)NC(=O)[C@@H](NC(=O)[C@@H](N)CCCNC(=N)N)C(C)C)C(=O)N[C@H](C(=O)N[C@@H](CC(N)=O)C(=O)N[C@@H](CC(C)C)C(=O)NC1(C)CCCCCCC=CCCCC(C)(C(=O)N[C@H](C(=O)N[C@@H](Cc2ccccc2)C(N)=O)C(C)C)NC(=O)[C@H](CCC(=O)O)NC(=O)[C@H](CCCNC(=N)N)NC(=O)[C@H](CC(C)C)NC(=O)[C@H]([C@@H](C)O)NC(=O)[C@H](C)NC(=O)[C@H](Cc2ccccc2)NC1=O)C(C)C (some centres unmarked) [IDP-H14-F14] (H-RVKLVNL[X1]FATLRE[ξαMeNle(6-ylidene)]VF-NH2; staple 8-15; N-terminus and C-terminus assumed)
[1]
  EC50: ~7.5 µM
[2]
  EC50: ~7.5 µM
[3]
  EC50: ~7.5 µM
[4]
  inhibition of cancer cell proliferation (in words): active

## CC(C)C[C@@H]1NC(=O)[C@H](C)NC(=O)[C@H](CCC(N)=O)NC(=O)[C@H](Cc2ccccc2)NC(=O)C(C)(NC(=O)[C@H](CC(C)C)NC(=O)[C@H](CC(N)=O)NC(=O)[C@@H](NC(=O)[C@H](CC(C)C)NC(=O)[C@H](CCCCN)NC(=O)[C@@H](NC(=O)[C@@H](N)CCCNC(=N)N)C(C)C)C(C)C)CCCCCCC=CCCCC(C)(C(=O)N[C@H](C(=O)N2CCC[C@H]2C(N)=O)C(C)C)NC(=O)[C@H](CCC(N)=O)NC(=O)[C@H](CCCNC(=N)N)NC1=O (some centres unmarked) [IDP-H14-H2-01] (H-RVKLVNL[X1]FQALRQ[ξαMeNle(6-ylidene)]VP-NH2; staple 8-15; N-terminus and C-terminus assumed)
[1]
  EC50: ~7.5 µM
[2]
  EC50: ~7.5 µM
[3]
  EC50: ~7.5 µM
[4]
  inhibition of cancer cell proliferation (in words): active

## CC(C)C[C@H](NC(=O)[C@H](CCCCN)NC(=O)[C@@H](NC(=O)[C@@H](N)CCCNC(=N)N)C(C)C)C(=O)N[C@H](C(=O)N[C@@H](CCC(N)=O)C(=O)N[C@@H](CC(C)C)C(=O)NC1(C)CCCCCCC=CCCCC(C)(C(=O)N[C@H](C(=O)N2CCC[C@H]2C(N)=O)C(C)C)NC(=O)[C@H](CCC(=O)O)NC(=O)[C@H](CCCNC(=N)N)NC(=O)[C@H](CC(C)C)NC(=O)[C@H]([C@@H](C)O)NC(=O)[C@H](C)NC(=O)[C@H](Cc2ccccc2)NC1=O)C(C)C (some centres unmarked) [IDP-H14-Q6] (H-RVKLVQL[X1]FATLRE[ξαMeNle(6-ylidene)]VP-NH2; staple 8-15; N-terminus and C-terminus assumed)
[1]
  EC50: ~7.5 µM
[2]
  EC50: ~7.5 µM
[3]
  EC50: ~12.5 µM
[4]
  inhibition of cancer cell proliferation (in words): active

## CC(C)C[C@H](NC(=O)[C@H](CCCCN)NC(=O)[C@@H](NC(=O)[C@@H](N)CCCNC(=N)N)C(C)C)C(=O)N[C@H](C(=O)N[C@@H](CC(N)=O)C(=O)N[C@@H](CC(C)C)C(=O)NC1(C)CCCCCCC=CCCCC(C)(C(=O)N[C@H](C(=O)N2CCC[C@H]2C(N)=O)C(C)C)NC(=O)[C@H](CCC(N)=O)NC(=O)[C@H](CCCNC(=N)N)NC(=O)[C@H](CC(C)C)NC(=O)[C@H]([C@@H](C)O)NC(=O)[C@H](C)NC(=O)[C@H](Cc2ccccc2)NC1=O)C(C)C (some centres unmarked) [IDP-H14-Q13] (H-RVKLVNL[X1]FATLRQ[ξαMeNle(6-ylidene)]VP-NH2; staple 8-15; N-terminus and C-terminus assumed)
[1]
  EC50: ~7.5 µM
[2]
  EC50: ~7.5 µM
[3]
  EC50: ~12.5 µM
[4]
  inhibition of cancer cell proliferation (in words): active
